≈ marks a conversion by molar mass, not a printed value.
How the values were obtained:
E. coli 3174 = assay: Broth microdilution MIC (strain enzymes: TEM-1, CTXM-15); format: cell-based; details: alone
K. oxytoca 176877 = assay: Broth microdilution MIC (strain enzymes: SHV-105); format: cell-based; details: alone
E. coli 3327 = assay: Broth microdilution MIC (strain enzymes: TEM-1, SHV-12); format: cell-based; details: alone
K. pneumoniae 329633 = assay: Broth microdilution MIC (strain enzymes: SHV-5, TEM-1); format: cell-based; details: alone
K. pneumoniae ESBL 8 #1 = assay: Broth microdilution MIC (strain enzymes: TEM-1, SHV-12); format: cell-based; details: alone
K. pneumoniae KI (KCl) = assay: Broth microdilution MIC (strain enzymes: TEM-10); format: cell-based; details: alone
E. coli SI-AIRT-4 = assay: Broth microdilution MIC (strain enzymes: TEM-1); format: cell-based; details: alone
K. pneumoniae 115468 = assay: Broth microdilution MIC (strain enzymes: TEM-1); format: cell-based; details: alone
E. coli SI-PBLII = assay: Broth microdilution MIC (strain enzymes: CTX-M2, TEM-1); format: cell-based; details: alone
K. pneumoniae 153239 = assay: Broth microdilution MIC (strain enzymes: SHV-11, TEM-1); format: cell-based; details: alone
E. coli 1924 = assay: Broth microdilution MIC (strain enzymes: TEM-12); format: cell-based; details: alone
K. pneumoniae 11/23 LF#2 = assay: microbe, parasite or virus in culture; format: cell-based; details: alone
E. coli 25922 = assay: Broth microdilution MIC (strain enzymes: None detected); format: cell-based; details: alone
K. pneumoniae ESBL 8 #2 = assay: Broth microdilution MIC (strain enzymes: SHV-12, TEM-1); format: cell-based; details: alone
E. coli SI-V502 = assay: Broth microdilution MIC (strain enzymes: TEM-29, CTX-M15); format: cell-based; details: alone
E. coli 2806 = assay: Broth microdilution MIC (strain enzymes: SHV-12, TEM-1); format: cell-based; details: alone
K. pneumoniae 304487 = assay: Broth microdilution MIC (strain enzymes: SHV-12,TEM-1); format: cell-based; details: alone
E. coli SI-NO36 = assay: Broth microdilution MIC (strain enzymes: SHV-11, TEM-1); format: cell-based; details: alone
K. oxytoca 496 #2 = assay: Broth microdilution MIC (strain enzymes: SHV-105, TEM-1); format: cell-based; details: alone
K. pneumoniae ESBL 10 = assay: Broth microdilution MIC (strain enzymes: SHV-12, TEM-1); format: cell-based; details: alone
[1] = test system: panel of ESBL-producing Enterobacteriaceae (40 strains); assay: Broth microdilution MIC50/MIC90 summary over the panel; format: cell-based; details: No BLI
[2] = Excipient screening: solubility in SEDDS excipients; format: physicochemical; details: thermodynamic from solid
Protocol: The solubility of Compound 1-ethanolate was evaluated in a series of pharmaceutically acceptable excipients that are commonly used to prepare self-emulsifying drug delivery systems (SEDDS) for oral drug delivery. This class of formulation results in a solid solution of drug substance and excipients that enable the delivery of the drug substance and prevents precipitation upon contact with aqueous environments (i.e. the stomach). The indicated quantity of Compound 1-ethanolate was weighed into a 3 mL screw top glass vial outfitted with a magnetic stir bar. The vial was transferred to a controlled temperature heating block and 100 μL aliquots of each excipient was added with stirring. After each addition, the sample was evaluated for dissolution of the drug substance and additional aliquots of excipient were added until a clear, colorless solution was obtained. Table 22 summarizes the solubility screening for 25 excipients.

CC1=C(C(=O)O)N2C(=O)[C@@H](NC(=O)[C@H](N)c3ccccc3)[C@H]2SC1 [Cephalexin, cefalexin, reference compound]
MIC of cefalexin (LEX) (E. coli 3174): 1 µg/mL | MIC of cefalexin (LEX) (K. oxytoca 176877): 8 µg/mL | MIC of cefalexin (LEX) (E. coli 3327): 16 µg/mL | MIC of cefalexin (LEX) (K. pneumoniae 329633): 16 µg/mL | MIC of cefalexin (LEX) (K. pneumoniae ESBL 8 #1): 16 µg/mL | MIC of cefalexin (LEX) (K. pneumoniae KI (KCl)): 1 µg/mL | MIC of cefalexin (LEX) (E. coli SI-AIRT-4): 0.25 µg/mL | MIC of cefalexin (LEX) (K. pneumoniae 115468): 8 µg/mL | MIC of cefalexin (LEX) (E. coli SI-PBLII): 2 µg/mL | MIC of cefalexin (LEX) (K. pneumoniae 153239): 2 µg/mL | MIC of cefalexin (LEX) (E. coli 1924): 2 µg/mL | MIC of cefalexin (LEX) (K. pneumoniae 11/23 LF#2): 2 µg/mL | MIC of cefalexin (LEX) (E. coli 25922): 0.5 µg/mL | MIC of cefalexin (LEX) (K. pneumoniae ESBL 8 #2): 16 µg/mL | MIC of cefalexin (LEX) (E. coli SI-V502): 2 µg/mL | MIC of cefalexin (LEX) (E. coli 2806): 4 µg/mL | MIC of cefalexin (LEX) (K. pneumoniae 304487): 8 µg/mL | MIC of cefalexin (LEX) (E. coli SI-NO36): 4 µg/mL | MIC of cefalexin (LEX) (K. oxytoca 496 #2): 16 µg/mL | MIC of cefalexin (LEX) (K. pneumoniae ESBL 10): 16 µg/mL | Cephalexin MIC50 [1]: >32 µg/mL | Cephalexin MIC90 [1]: >32 µg/mL

CCOB1Oc2c(cccc2C(=O)OCOC(=O)C(CC)CC)C[C@@H]1NC(=O)CC [Compound 1-ethanolate, ((2-ethylbutanoyl)oxy)methyl (R)-2-ethoxy-3-propionamido-3,4-dihydro-2H-benzo[e][1,2]oxaborinine-8-carboxylate]
solubility ([2]; 50 °C, oil or lipid, Labrafil M1944CS (Oleoyl polyoxyl-6 glycerides)): > 140 mg/mL | solubility ([2]; 50 °C, oil or lipid, Labrafil M2125C5 (Linoleoyl polyoxyl-6 glycerides)): > 152 mg/mL | solubility ([2]; 50 °C, oil or lipid, Plurol Oleique CC497 (Polyglyceryl-3 dioleate)): > 375 mg/mL | solubility ([2]; 50 °C, organic solvent or mixture, Gelucire 44/14 (Lauroyl polyoxyl-32 glycerides)): > 284 mg/mL | solubility ([2]; 50 °C, organic solvent or mixture, Kolliphor EL (Polyoxyl 35 hydrogenated castor oil)): > 376 mg/mL | solubility ([2]; 50 °C, organic solvent or mixture, Kolliphor RH (PEG-40 Hydrogenated Castor Oil)): ~172 mg/mL (≈ 410 mM) | solubility ([2]; 50 °C, organic solvent or mixture, Labrasol (Caprylocaproyl polyoxyl-8 glycerides)): > 585 mg/mL | solubility ([2]; 50 °C, organic solvent or mixture, Polysorbate 80 (Polyoxyethylene (20) sorbitan monooleate)): > 238 mg/mL | solubility ([2]; Capmul MCM (Caprylic/capric mono- & diglycerides), 50 °C, oil or lipid): > 351 mg/mL | solubility ([2]; Ethanol, 50 °C, organic solvent or mixture): > 568 mg/mL | solubility ([2]; Glycerol, 50 °C, organic solvent or mixture): < 55.8 mg/mL | solubility ([2]; Lauroglycol (Propylene Glycol Monolaurate), neat excipient, 50 °C, oil or lipid): > 292 mg/mL | solubility ([2]; Maisine CC (glyceryl monolinoleate), 50 °C, oil or lipid): > 368 mg/mL | solubility ([2]; Myrj 52 (PEG-40 Stearate), neat excipient, 50 °C, organic solvent or mixture): > 277 mg/mL | solubility ([2]; PEG-400, 50 °C, organic solvent or mixture, PEG-400, 50° C.): > 498 mg/mL | solubility ([2]; PEG-1500, 50 °C, organic solvent or mixture, PEG-1500, 50° C.): > 382 mg/mL | solubility ([2]; PEG-3350, 65 °C, organic solvent or mixture, PEG-3350, 65° C.): > 280 mg/mL | solubility ([2]; Peceol (Glyceryl monooleate), neat excipient, 50 °C, oil or lipid): > 413 mg/mL | solubility ([2]; Phosal 50 PG (50% PC and propylene glycol), 50 °C, oil or lipid): > 419 mg/mL | solubility ([2]; Poloxamer 188, neat excipient, 65 °C, organic solvent or mixture, Poloxamer 188): > 225 mg/mL | solubility ([2]; Propylene Glycol, 50 °C, organic solvent or mixture): > 1210 mg/mL | solubility ([2]; Span 20 (Sorbitan monolaurate), neat excipient, 50 °C, organic solvent or mixture): > 227 mg/mL | solubility ([2]; Span 80, 50 °C, organic solvent or mixture, Span 80, 50° C.): > 276 mg/mL | solubility ([2]; TPGS, neat excipient, 50 °C, organic solvent or mixture): > 229 mg/mL | solubility ([2]; Triacetin (glycerin triacetate), 50 °C, organic solvent or mixture): > 84.2 mg/mL

— US12544395B2, “Combination compositions comprising a beta-lactamase inhibitor and uses thereof” (priority 2018, dated 2026)
